Laboratory results published in patent US8835432B2, “Heterocyclic compounds and their uses” (Amgen Inc., priority 2012, dated 2014).

Legend:
[1] = target: T1, PI3K d (Homo sapiens, UniProt O00329); test: In vitro enzyme assay, PI3K delta; assay type: biochemical
T1 construct: Full length p110 subunits of PI3k α, β and δ, N-terminally labeled with polyHis tag; polyHis (N); made in house; host or cells: Sf9 insect cells (baculovirus)
Procedure: (§1) Full length p110 subunits of PI3k α, β and δ, N-terminally labeled with polyHis tag, were coexpressed with p85 with Baculo virus expression vectors in sf9 insect cells. P110/p85 heterodimers were purified by sequential Ni-NTA, Q-HP, Superdex-100 chromatography. Purified α, β and δ isozymes were stored at −20° C. in 20 mM Tris, pH 8, 0.2M NaCl, 50% glycerol, 5 mM DTT, 2 mM Na cholate. Truncated PI3Kγ, residues 114-1102, N-terminally labeled with polyHis tag, was expressed with Baculo virus in Hi5 insect cells. The γ isozyme was purified by sequential Ni-NTA, Superdex-200, Q-HP chromatography. The γ isozyme was stored frozen at −80° C. in NaH2PO4, pH 8, 0.2M NaCl, 1% ethylene glycol, 2 mM β-mercaptoethanol.
(§2) Assays were performed in 25 μL with the above final concentrations of components in white polyproplyene plates (Costar 3355). Phospatidyl inositol phosphoacceptor, PtdIns(4,5)P2 P4508, was from Echelon Biosciences. The ATPase activity of the alpha and gamma isozymes was not greatly stimulated by PtdIns(4,5)P2 under these conditions and was therefore omitted from the assay of these isozymes. Test compounds were dissolved in dimethyl sulfoxide and diluted with three-fold serial dilutions. The compound in DMSO (1 μL) was added per test well, and the inhibition relative to reactions containing no compound, with and without enzyme was determined After assay incubation at rt, the reaction was stopped and residual ATP determined by addition of an equal volume of a commercial ATP bioluminescence kit (Perkin Elmer EasyLite) according to the manufacturer's instructions, and detected using a AnalystGT luminometer.

[2] = tested on: PI3K b; test: In vitro enzyme assay, PI3K beta; assay type: biochemical; conditions: ratio of beta to delta IC50
Procedure: as §1, §2

[3] = target: T2, PI3Ka (Homo sapiens, UniProt P42336); test: In vitro enzyme assay, PI3K alpha; assay type: biochemical
T2 construct: Full length p110 subunits of PI3k α, β and δ, N-terminally labeled with polyHis tag; polyHis (N); made in house; host or cells: Sf9 insect cells (baculovirus)
Procedure: as §1, §2

[4] = target: T3, PI3Kg (Homo sapiens, UniProt P48736); test: In vitro enzyme assay, PI3K gamma; assay type: biochemical
T3 construct: Truncated PI3Kγ, residues 114-1102, N-terminally labeled with polyHis tag; polyHis (N); made in house; host or cells: Hi5 insect cells (baculovirus)
Procedure: as §1, §2

[5] = tested on: Human B cells; test: Human B cells proliferation stimulated by anti-IgM; assay type: cell-based; conditions: Hu B Cell anti-IgM, note under the cell, read-out: on target anti-IgM (Hu B Cell anti-IgM)
Procedure: Human B Cells Proliferation Stimulate by Anti-IgM
Isolate PBMCs from Leukopac or from human fresh blood. Isolate human B cells by using Miltenyi protocol and B cell isolation kit II.-human B cells were Purified by using AutoMacs.column.
Activation of Human B Cells
Use 96 well Flat bottom plate, plate 50000/well purified B cells in B cell proliferation medium (DMEM+5% FCS, 10 mM Hepes, 50 μM 2-mercaptoethanol); 150 μL medium contain 250 ng/mL CD40L-LZ recombinant protein (Amgen) and 2 μg/mL anti-Human IgM antibody (Jackson ImmunoReseach Lab.#109-006-129), mixed with 50 μL B cell medium containing PI3K inhibitors and incubate 72 h at 37° C. incubator. After 72 h, pulse labeling B cells with 0.5-1 uCi/well ^3H thymidine for overnight ˜18 h, and harvest cell using TOM harvester.

[6] = target: T4, PI3KIII (Homo sapiens, UniProt Q8NEB9); test: Class III PI(3)P assay (U20S EGFP-2XFYVE cells); assay type: cell-based
T4 construct: host or cells: U2OS EGFP-2XFYVE cells
Procedure: (§3) GFP Assays for Detecting Inhibition of Class Ia and Class III PI3K
FYVE domains bind to PI(3)P. the majority is generated by constitutive action of PI3K Class III
Class III PI(3)P assay (U20S EGFP-2XFYVE Cells/GE Healthcare)
Wash cells with assay buffer. Treat with compounds in assay buffer 1 h. Fix and image.
Control for all 3 assays is […] Wortmannin:
PI(3)P depleted from endosomes

[7] = target: T5, PI3Kb (Homo sapiens, UniProt P42338); test: Forkhead translocation assay (MDA MB468 Forkhead-DiversaGFP cells); assay type: cell-based; design: endogenous in cells; host or cells: MDA MB468 (Forkhead-DiversaGFP) cells; conditions: first value of the cell; MDA468 forkhead; read-out: PI3KbMDA468 FH
Procedure: as §3
Forkhead (FKHRL1) is a substrate for AKT1. It is cytoplasmic when phosphorylated by AKT (survival/growth). Inhibition of AKT (stasis/apoptosis)-forkhead translocation to the nucleus
Forkhead Translocation Assay (MDA MB468 Forkhead-DiversaGFP Cells)
Treat cells with compound in growth medium 1 h. Fix and image.

[8] = target: T5, PI3Kb; test: In vitro enzyme assay, PI3K beta; assay type: biochemical; design: Full length p110 subunits of PI3k α, β and δ, N-terminally labeled with polyHis tag; polyHis (N); made in house; host or cells: Sf9 insect cells (baculovirus); conditions: read-out: P13K b IC50
Procedure: as §1, §2

T3 sequence (P48736 114-1102): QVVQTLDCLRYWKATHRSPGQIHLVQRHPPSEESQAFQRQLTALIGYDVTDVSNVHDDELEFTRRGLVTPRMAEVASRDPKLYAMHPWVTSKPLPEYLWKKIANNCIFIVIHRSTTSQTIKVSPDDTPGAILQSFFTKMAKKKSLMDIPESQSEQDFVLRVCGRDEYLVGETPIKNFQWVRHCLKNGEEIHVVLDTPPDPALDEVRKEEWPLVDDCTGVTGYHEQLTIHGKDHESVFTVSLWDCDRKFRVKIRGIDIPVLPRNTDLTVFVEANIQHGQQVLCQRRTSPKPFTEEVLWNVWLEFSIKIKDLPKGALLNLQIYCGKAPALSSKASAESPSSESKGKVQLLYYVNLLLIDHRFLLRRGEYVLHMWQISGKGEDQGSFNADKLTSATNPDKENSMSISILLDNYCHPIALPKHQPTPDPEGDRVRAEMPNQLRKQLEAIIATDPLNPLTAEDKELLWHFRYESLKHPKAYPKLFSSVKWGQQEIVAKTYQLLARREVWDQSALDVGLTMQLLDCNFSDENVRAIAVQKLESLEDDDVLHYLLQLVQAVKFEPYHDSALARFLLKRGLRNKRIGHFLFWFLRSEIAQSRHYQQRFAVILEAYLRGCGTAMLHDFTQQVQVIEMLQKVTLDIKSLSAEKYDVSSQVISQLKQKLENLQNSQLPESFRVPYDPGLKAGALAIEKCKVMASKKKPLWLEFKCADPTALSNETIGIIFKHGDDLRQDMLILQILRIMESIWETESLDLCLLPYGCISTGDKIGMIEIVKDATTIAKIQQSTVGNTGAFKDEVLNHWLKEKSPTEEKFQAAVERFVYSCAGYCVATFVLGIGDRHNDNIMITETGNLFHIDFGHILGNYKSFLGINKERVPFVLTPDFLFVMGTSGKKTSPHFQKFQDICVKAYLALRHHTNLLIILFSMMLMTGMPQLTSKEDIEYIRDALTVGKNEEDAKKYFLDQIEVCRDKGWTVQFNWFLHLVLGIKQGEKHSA
T2 sequence (P42336 whole entry): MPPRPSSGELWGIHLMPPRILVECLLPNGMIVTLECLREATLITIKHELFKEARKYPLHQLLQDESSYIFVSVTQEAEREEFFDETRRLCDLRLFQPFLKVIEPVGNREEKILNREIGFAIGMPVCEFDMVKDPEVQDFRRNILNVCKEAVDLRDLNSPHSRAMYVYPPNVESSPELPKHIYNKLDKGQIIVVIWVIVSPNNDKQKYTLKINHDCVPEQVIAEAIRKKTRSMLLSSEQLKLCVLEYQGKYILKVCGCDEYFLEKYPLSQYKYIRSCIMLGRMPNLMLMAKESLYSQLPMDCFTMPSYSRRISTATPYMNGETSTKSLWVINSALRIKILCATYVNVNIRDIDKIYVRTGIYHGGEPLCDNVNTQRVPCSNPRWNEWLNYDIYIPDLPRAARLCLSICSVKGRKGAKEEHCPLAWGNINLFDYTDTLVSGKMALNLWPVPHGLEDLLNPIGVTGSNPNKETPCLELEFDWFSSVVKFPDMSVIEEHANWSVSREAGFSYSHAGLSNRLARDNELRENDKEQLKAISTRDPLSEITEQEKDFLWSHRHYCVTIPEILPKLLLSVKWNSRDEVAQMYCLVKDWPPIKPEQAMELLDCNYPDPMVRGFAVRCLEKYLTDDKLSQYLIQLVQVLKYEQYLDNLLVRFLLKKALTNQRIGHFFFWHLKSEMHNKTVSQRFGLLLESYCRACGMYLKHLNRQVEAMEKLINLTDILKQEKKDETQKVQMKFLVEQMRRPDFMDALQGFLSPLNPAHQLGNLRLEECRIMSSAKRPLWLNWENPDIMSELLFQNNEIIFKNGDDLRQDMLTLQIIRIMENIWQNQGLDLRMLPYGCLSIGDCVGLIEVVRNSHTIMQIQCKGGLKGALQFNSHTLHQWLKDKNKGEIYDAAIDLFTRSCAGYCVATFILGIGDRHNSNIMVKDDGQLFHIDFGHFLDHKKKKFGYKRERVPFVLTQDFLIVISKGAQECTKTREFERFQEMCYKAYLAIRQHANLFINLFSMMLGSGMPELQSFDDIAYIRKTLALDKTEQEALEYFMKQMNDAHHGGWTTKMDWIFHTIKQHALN
T2 sequence (P27986 whole entry partner): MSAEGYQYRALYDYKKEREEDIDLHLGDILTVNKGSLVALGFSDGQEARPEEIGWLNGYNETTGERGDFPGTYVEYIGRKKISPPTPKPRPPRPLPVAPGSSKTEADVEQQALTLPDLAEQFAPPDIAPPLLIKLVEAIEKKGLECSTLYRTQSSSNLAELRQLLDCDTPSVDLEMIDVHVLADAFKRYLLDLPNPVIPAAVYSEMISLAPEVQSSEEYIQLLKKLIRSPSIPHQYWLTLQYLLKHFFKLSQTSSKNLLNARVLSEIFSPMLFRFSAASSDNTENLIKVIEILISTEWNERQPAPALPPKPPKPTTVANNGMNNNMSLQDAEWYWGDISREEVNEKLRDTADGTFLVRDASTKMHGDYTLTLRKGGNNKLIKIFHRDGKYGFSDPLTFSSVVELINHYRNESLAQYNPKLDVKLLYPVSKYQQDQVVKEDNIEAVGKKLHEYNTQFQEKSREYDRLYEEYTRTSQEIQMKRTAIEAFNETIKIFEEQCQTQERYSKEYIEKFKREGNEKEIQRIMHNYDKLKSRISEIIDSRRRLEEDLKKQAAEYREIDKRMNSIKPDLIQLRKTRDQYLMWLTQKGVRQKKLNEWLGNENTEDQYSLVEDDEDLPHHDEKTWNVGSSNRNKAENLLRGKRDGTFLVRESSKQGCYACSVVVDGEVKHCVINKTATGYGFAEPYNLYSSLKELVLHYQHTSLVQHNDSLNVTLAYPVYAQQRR
T5 sequence (P42338 whole entry): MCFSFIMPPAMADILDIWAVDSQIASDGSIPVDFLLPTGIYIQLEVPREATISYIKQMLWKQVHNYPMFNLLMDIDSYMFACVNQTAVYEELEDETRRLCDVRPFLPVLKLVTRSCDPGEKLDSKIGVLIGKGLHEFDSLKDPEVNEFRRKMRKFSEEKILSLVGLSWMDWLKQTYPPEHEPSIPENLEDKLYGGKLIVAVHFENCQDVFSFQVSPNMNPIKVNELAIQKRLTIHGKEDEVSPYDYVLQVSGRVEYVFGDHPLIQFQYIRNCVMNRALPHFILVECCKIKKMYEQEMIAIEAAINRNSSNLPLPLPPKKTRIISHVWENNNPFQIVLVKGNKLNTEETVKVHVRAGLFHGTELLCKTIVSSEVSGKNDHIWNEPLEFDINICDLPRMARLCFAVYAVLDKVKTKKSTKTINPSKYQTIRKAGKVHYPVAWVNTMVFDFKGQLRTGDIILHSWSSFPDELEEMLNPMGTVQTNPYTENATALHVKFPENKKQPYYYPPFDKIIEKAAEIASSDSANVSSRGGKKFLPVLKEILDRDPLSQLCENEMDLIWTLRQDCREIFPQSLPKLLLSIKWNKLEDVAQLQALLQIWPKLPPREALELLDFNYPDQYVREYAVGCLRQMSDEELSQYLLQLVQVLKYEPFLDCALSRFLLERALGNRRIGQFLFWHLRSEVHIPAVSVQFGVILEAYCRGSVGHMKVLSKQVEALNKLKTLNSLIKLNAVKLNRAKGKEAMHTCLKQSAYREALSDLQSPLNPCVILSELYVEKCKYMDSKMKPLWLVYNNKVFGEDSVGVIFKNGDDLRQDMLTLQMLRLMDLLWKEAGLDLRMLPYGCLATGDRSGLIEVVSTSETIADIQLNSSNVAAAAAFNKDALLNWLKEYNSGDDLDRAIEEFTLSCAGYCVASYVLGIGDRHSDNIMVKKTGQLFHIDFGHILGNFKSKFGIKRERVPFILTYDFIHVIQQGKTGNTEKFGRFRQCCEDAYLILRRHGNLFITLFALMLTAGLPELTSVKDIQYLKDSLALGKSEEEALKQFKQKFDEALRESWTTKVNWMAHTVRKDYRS
T5 sequence (P27986 whole entry partner): as the sequence (P27986 whole entry partner) above
T4 sequence (Q8NEB9 whole entry): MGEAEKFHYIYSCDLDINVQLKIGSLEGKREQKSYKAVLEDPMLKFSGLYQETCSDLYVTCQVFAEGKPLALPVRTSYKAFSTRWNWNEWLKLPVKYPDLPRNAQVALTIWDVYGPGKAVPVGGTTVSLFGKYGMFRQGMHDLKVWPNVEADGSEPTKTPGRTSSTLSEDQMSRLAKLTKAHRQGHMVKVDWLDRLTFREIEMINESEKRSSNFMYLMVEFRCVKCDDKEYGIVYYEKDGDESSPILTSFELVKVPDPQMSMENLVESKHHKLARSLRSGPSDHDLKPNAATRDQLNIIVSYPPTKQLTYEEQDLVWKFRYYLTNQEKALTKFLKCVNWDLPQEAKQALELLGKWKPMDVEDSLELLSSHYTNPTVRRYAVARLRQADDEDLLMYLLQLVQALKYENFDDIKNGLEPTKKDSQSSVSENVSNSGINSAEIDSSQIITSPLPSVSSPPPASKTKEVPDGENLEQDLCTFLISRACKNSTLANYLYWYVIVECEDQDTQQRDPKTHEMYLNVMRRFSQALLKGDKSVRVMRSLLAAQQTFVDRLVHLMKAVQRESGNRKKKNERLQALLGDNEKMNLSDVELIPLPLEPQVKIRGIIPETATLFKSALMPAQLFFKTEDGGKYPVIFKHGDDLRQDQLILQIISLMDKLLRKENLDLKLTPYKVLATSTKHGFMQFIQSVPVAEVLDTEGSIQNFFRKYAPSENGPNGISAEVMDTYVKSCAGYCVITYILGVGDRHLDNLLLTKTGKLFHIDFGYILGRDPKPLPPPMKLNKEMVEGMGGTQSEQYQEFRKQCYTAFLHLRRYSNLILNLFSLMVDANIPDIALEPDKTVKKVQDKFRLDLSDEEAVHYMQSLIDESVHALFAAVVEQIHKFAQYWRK

C[C@H](Nc1ncnc(N)c1C#N)c1nc2ccc(F)cc2nc1-c1ccccn1 [Example 7, (S)-4-Amino-6-((1-(6-fluoro-3-(pyridin-2-yl)quinoxalin-2-yl)ethyl)amino)-pyrimidine-5-carbonitrile]
IC50 [1]: 11.7 nM
PI3K: b/d [2]: 213
PI3Ka IC50 [3]: 12700 nM
PI3K: a/d ([3]; ratio of alpha to delta IC50): 1085
IC50 [4]: 3900 nM
PI3K: g/d ([4]; ratio of gamma to delta IC50): 333
IC50 [5]: 10.4 nM
IC50 [6]: > 10000 nM
IC50 [7]: > 10000 nM
IC50 [8]: 2490 nM
